Assay results: ChEMBL document CHEMBL1649246, “Complete nucleotide sequences of plasmids pEK204, pEK499, and pEK516, encoding CTX-M enzymes in three major Escherichia coli lineages from the United Kingdom, all belonging to the international O25:H4-ST131 clone” (2009)
Converted amounts (≈) assume the structure as drawn.

Key:
Assay type in all cases: functional
Escherichia coli [1] = test: Antimicrobial activity against Escherichia coli J53
Escherichia coli [2] = test: Antimicrobial activity against Escherichia coli DH5[alpha]
Escherichia coli [3] = test: Antimicrobial activity against Escherichia coli J53 harboring pEK499 plasmid encoding CTX-M extended-spectrum beta-lactamases
Escherichia coli [4] = test: Antimicrobial activity against Escherichia coli DH5[alpha] harboring pEK516 plasmid encoding CTX-M extended-spectrum beta-lactamases
Escherichia coli [5] = test: Antimicrobial activity against Escherichia coli J53 in presence of beta-lactamase inhibitor clavulanic acid
Escherichia coli [6] = test: Antimicrobial activity against Escherichia coli J53 harboring pEK499 plasmid encoding CTX-M extended-spectrum beta-lactamases in presence of beta-lactamase inhibitor clavulanic acid
Escherichia coli [7] = test: Antimicrobial activity against Escherichia coli J53 harboring pEK204 plasmid encoding CTX-M extended-spectrum beta-lactamases in presence of beta-lactamase inhibitor clavulanic acid
Escherichia coli [8] = test: Antimicrobial activity against Escherichia coli DH5[alpha] in presence of beta-lactamase inhibitor clavulanic acid
Escherichia coli [9] = test: Antimicrobial activity against Escherichia coli DH5[alpha] harboring pEK516 plasmid encoding CTX-M extended-spectrum beta-lactamases in presence of beta-lactamase inhibitor clavulanic acid
Escherichia coli [10] = test: Antimicrobial activity against Escherichia coli J53 harboring pEK204 plasmid encoding CTX-M extended-spectrum beta-lactamases
Escherichia coli [11] = test: Antimicrobial activity against Escherichia coli J53 in presence of beta-lactamase inhibitor Tazobactam
Escherichia coli [12] = test: Antimicrobial activity against Escherichia coli J53 harboring pEK499 plasmid encoding CTX-M extended-spectrum beta-lactamases in presence of beta-lactamase inhibitor Tazobactam
Escherichia coli [13] = test: Antimicrobial activity against Escherichia coli J53 harboring pEK204 plasmid encoding CTX-M extended-spectrum beta-lactamases in presence of beta-lactamase inhibitor Tazobactam
Escherichia coli [14] = test: Antimicrobial activity against Escherichia coli DH5[alpha] in presence of beta-lactamase inhibitor Tazobactam
Escherichia coli [15] = test: Antimicrobial activity against Escherichia coli DH5[alpha] harboring pEK516 plasmid encoding CTX-M extended-spectrum beta-lactamases in presence of beta-lactamase inhibitor Tazobactam

C[C@@H](O)[C@H]1C(=O)N2C(C(=O)O)=C(S[C@@H]3CN[C@H](C(=O)Nc4cccc(C(=O)O)c4)C3)[C@H](C)[C@H]12
MIC (Escherichia coli [1]): ≤ 0.125 µg/mL
MIC (Escherichia coli [2]): ≤ 0.125 µg/mL

NCC[C@H](O)C(=O)N[C@@H]1C[C@H](N)[C@@H](O[C@H]2O[C@H](CN)[C@@H](O)[C@H](O)[C@H]2O)[C@H](O)[C@H]1O[C@H]1O[C@H](CO)[C@@H](O)[C@H](N)[C@H]1O [AMIKACIN]
MIC (Escherichia coli [1]): ≤ 0.5 µg/mL
MIC (Escherichia coli [3]): 4 µg/mL (≈ 6.83 µM)
MIC (Escherichia coli [2]): 1 µg/mL (≈ 1.71 µM)
MIC (Escherichia coli [4]): 2 µg/mL (≈ 3.42 µM)

CC1(C)S[C@@H]2[C@H](NC(=O)[C@H](N)c3ccc(O)cc3)C(=O)N2[C@H]1C(=O)O [AMOXICILLIN]
MIC (Escherichia coli [5]): 8 µg/mL
MIC (Escherichia coli [6]): 32 µg/mL
MIC (Escherichia coli [7]): 16 µg/mL
MIC (Escherichia coli [8]): 8 µg/mL
MIC (Escherichia coli [9]): 16 µg/mL

CC1(C)S[C@@H]2[C@H](NC(=O)[C@H](N)c3ccccc3)C(=O)N2[C@H]1C(=O)O [AMPICILLIN]
MIC (Escherichia coli [1]): 8 µg/mL (≈ 22.9 µM)
MIC (Escherichia coli [3]): > 64 µg/mL
MIC (Escherichia coli [10]): > 64 µg/mL
MIC (Escherichia coli [2]): 16 µg/mL (≈ 45.8 µM)
MIC (Escherichia coli [4]): > 64 µg/mL

C[C@H]1[C@H](NC(=O)/C(=N\OC(C)(C)C(=O)O)c2csc(N)n2)C(=O)N1S(=O)(=O)O [AZTREONAM]
MIC (Escherichia coli [3]): > 64 µg/mL
MIC (Escherichia coli [10]): 8 µg/mL (≈ 18.4 µM)
MIC (Escherichia coli [2]): 0.25 µg/mL (≈ 0.574 µM)
MIC (Escherichia coli [4]): 32 µg/mL (≈ 73.5 µM)

CO/N=C(\C(=O)N[C@@H]1C(=O)N2C(C(=O)O)=C(COC(C)=O)CS[C@H]12)c1csc(N)n1 [CEFOTAXIME]
MIC (Escherichia coli [1]): ≤ 0.125 µg/mL
MIC (Escherichia coli [3]): 256 µg/mL (≈ 562 µM)
MIC (Escherichia coli [10]): 64 µg/mL (≈ 141 µM)
MIC (Escherichia coli [2]): 0.25 µg/mL (≈ 0.549 µM)
MIC (Escherichia coli [4]): 128 µg/mL (≈ 281 µM)
MIC (Escherichia coli [5]): ≤ 0.06 µg/mL
MIC (Escherichia coli [6]): 0.125 µg/mL
MIC (Escherichia coli [7]): 0.125 µg/mL
MIC (Escherichia coli [8]): ≤ 0.06 µg/mL

CO[C@@]1(NC(=O)Cc2cccs2)C(=O)N2C(C(=O)O)=C(COC(N)=O)CS[C@@H]21 [CEFOXITIN]
MIC (Escherichia coli [1]): 8 µg/mL (≈ 18.7 µM)
MIC (Escherichia coli [3]): 8 µg/mL (≈ 18.7 µM)
MIC (Escherichia coli [10]): 8 µg/mL (≈ 18.7 µM)
MIC (Escherichia coli [2]): 8 µg/mL (≈ 18.7 µM)
MIC (Escherichia coli [4]): 8 µg/mL (≈ 18.7 µM)

CO/N=C(\C(=O)N[C@@H]1C(=O)N2C(C(=O)[O-])=C(C[n+]3cccc4c3CCC4)CS[C@H]12)c1csc(N)n1 [CEFPIROME]
MIC (Escherichia coli [1]): ≤ 0.125 µg/mL
MIC (Escherichia coli [3]): > 64 µg/mL
MIC (Escherichia coli [10]): 16 µg/mL (≈ 31.1 µM)
MIC (Escherichia coli [2]): ≤ 0.125 µg/mL
MIC (Escherichia coli [4]): 64 µg/mL (≈ 124 µM)
MIC (Escherichia coli [5]): ≤ 0.06 µg/mL
MIC (Escherichia coli [8]): ≤ 0.06 µg/mL

CC(C)(O/N=C(\C(=O)N[C@@H]1C(=O)N2C(C(=O)[O-])=C(C[n+]3ccccc3)CS[C@H]12)c1csc(N)n1)C(=O)O [CEFTAZIDIME]
MIC (Escherichia coli [1]): 0.25 µg/mL (≈ 0.457 µM)
MIC (Escherichia coli [3]): 64 µg/mL (≈ 117 µM)
MIC (Escherichia coli [10]): 2 µg/mL (≈ 3.66 µM)
MIC (Escherichia coli [2]): 0.25 µg/mL (≈ 0.457 µM)
MIC (Escherichia coli [4]): 16 µg/mL (≈ 29.3 µM)
MIC (Escherichia coli [5]): 0.25 µg/mL
MIC (Escherichia coli [6]): 0.5 µg/mL
MIC (Escherichia coli [7]): 0.25 µg/mL
MIC (Escherichia coli [8]): 0.25 µg/mL
MIC (Escherichia coli [9]): 0.25 µg/mL

O=C(N[C@H](CO)[C@H](O)c1ccc([N+](=O)[O-])cc1)C(Cl)Cl [CHLORAMPHENICOL]
MIC (Escherichia coli [1]): 2 µg/mL (≈ 6.19 µM)
MIC (Escherichia coli [3]): 2 µg/mL (≈ 6.19 µM)
MIC (Escherichia coli [10]): 2 µg/mL (≈ 6.19 µM)
MIC (Escherichia coli [2]): 2 µg/mL (≈ 6.19 µM)
MIC (Escherichia coli [4]): 2 µg/mL (≈ 6.19 µM)

O=C(O)c1cn(C2CC2)c2cc(N3CCNCC3)c(F)cc2c1=O [CIPROFLOXACIN]
MIC (Escherichia coli [1]): ≤ 0.125 µg/mL
MIC (Escherichia coli [2]): ≤ 0.125 µg/mL

C[C@@H](O)[C@H]1C(=O)N2C(C(=O)O)=C(SCCNC=N)C[C@H]12 [IMIPENEM ANHYDROUS]
MIC (Escherichia coli [1]): 0.25 µg/mL (≈ 0.835 µM)
MIC (Escherichia coli [2]): 0.5 µg/mL (≈ 1.67 µM)

C[C@@H](O)[C@H]1C(=O)N2C(C(=O)O)=C(S[C@@H]3CN[C@H](C(=O)N(C)C)C3)[C@H](C)[C@H]12 [MEROPENEM]
MIC (Escherichia coli [1]): ≤ 0.06 µg/mL
MIC (Escherichia coli [2]): ≤ 0.06 µg/mL

CN(C)c1ccc(O)c2c1C[C@H]1C[C@H]3[C@H](N(C)C)C(O)=C(C(N)=O)C(=O)[C@@]3(O)C(O)=C1C2=O [MINOCYCLINE]
MIC (Escherichia coli [1]): 0.25 µg/mL (≈ 0.546 µM)
MIC (Escherichia coli [3]): 2 µg/mL (≈ 4.37 µM)
MIC (Escherichia coli [10]): 0.25 µg/mL (≈ 0.546 µM)
MIC (Escherichia coli [2]): 0.25 µg/mL (≈ 0.546 µM)
MIC (Escherichia coli [4]): 4 µg/mL (≈ 8.74 µM)

CCN1CCN(C(=O)N[C@@H](C(=O)N[C@@H]2C(=O)N3[C@@H]2SC(C)(C)[C@@H]3C(=O)O)c2ccccc2)C(=O)C1=O [PIPERACILLIN]
MIC (Escherichia coli [1]): 4 µg/mL (≈ 7.73 µM)
MIC (Escherichia coli [3]): > 64 µg/mL
MIC (Escherichia coli [10]): > 64 µg/mL
MIC (Escherichia coli [2]): 4 µg/mL (≈ 7.73 µM)
MIC (Escherichia coli [4]): 64 µg/mL (≈ 124 µM)
MIC (Escherichia coli [11]): 4 µg/mL
MIC (Escherichia coli [12]): 16 µg/mL
MIC (Escherichia coli [13]): 4 µg/mL
MIC (Escherichia coli [14]): 4 µg/mL
MIC (Escherichia coli [15]): 4 µg/mL

CN[C@@H]1[C@H](O[C@H]2[C@H](O[C@H]3[C@H](O)[C@@H](O)[C@H](N=C(N)N)[C@@H](O)[C@@H]3N=C(N)N)O[C@@H](C)[C@]2(O)C=O)O[C@@H](CO)[C@H](O)[C@H]1O [STREPTOMYCIN]
MIC (Escherichia coli [1]): 1 µg/mL (≈ 1.72 µM)
MIC (Escherichia coli [3]): 32 µg/mL (≈ 55 µM)
MIC (Escherichia coli [10]): 2 µg/mL (≈ 3.44 µM)
MIC (Escherichia coli [2]): 1 µg/mL (≈ 1.72 µM)
MIC (Escherichia coli [4]): 0.5 µg/mL (≈ 0.86 µM)

Cc1cc(NS(=O)(=O)c2ccc(N)cc2)no1 [SULFAMETHOXAZOLE]
MIC (Escherichia coli [1]): 16 µg/mL (≈ 63.2 µM)
MIC (Escherichia coli [3]): > 1020 µg/mL
MIC (Escherichia coli [10]): 16 µg/mL (≈ 63.2 µM)
MIC (Escherichia coli [2]): 2 µg/mL (≈ 7.9 µM)
MIC (Escherichia coli [4]): 2 µg/mL (≈ 7.9 µM)

CN(C)[C@@H]1C(O)=C(C(N)=O)C(=O)[C@@]2(O)C(O)=C3C(=O)c4c(O)cccc4[C@@](C)(O)[C@H]3C[C@@H]12 [TETRACYCLINE]
MIC (Escherichia coli [1]): 1 µg/mL (≈ 2.25 µM)
MIC (Escherichia coli [3]): 32 µg/mL (≈ 72 µM)
MIC (Escherichia coli [10]): 1 µg/mL (≈ 2.25 µM)
MIC (Escherichia coli [2]): 1 µg/mL (≈ 2.25 µM)
MIC (Escherichia coli [4]): 32 µg/mL (≈ 72 µM)

CN(C)c1cc(NC(=O)CNC(C)(C)C)c(O)c2c1C[C@H]1C[C@H]3[C@H](N(C)C)C(O)=C(C(N)=O)C(=O)[C@@]3(O)C(O)=C1C2=O [TIGECYCLINE]
MIC (Escherichia coli [1]): ≤ 0.25 µg/mL
MIC (Escherichia coli [2]): ≤ 0.25 µg/mL

NC[C@H]1O[C@H](O[C@H]2[C@H](O)[C@@H](O[C@H]3O[C@H](CO)[C@@H](O)[C@H](N)[C@H]3O)[C@H](N)C[C@@H]2N)[C@H](N)C[C@@H]1O [TOBRAMYCIN]
MIC (Escherichia coli [1]): 0.25 µg/mL (≈ 0.535 µM)
MIC (Escherichia coli [3]): 8 µg/mL (≈ 17.1 µM)
MIC (Escherichia coli [10]): 0.5 µg/mL (≈ 1.07 µM)
MIC (Escherichia coli [2]): 0.5 µg/mL (≈ 1.07 µM)
MIC (Escherichia coli [4]): 8 µg/mL (≈ 17.1 µM)

COc1cc(Cc2cnc(N)nc2N)cc(OC)c1OC [TRIMETHOPRIM]
MIC (Escherichia coli [1]): 0.06 µg/mL (≈ 0.207 µM)
MIC (Escherichia coli [3]): > 32 µg/mL
MIC (Escherichia coli [10]): 0.06 µg/mL (≈ 0.207 µM)
MIC (Escherichia coli [2]): 0.06 µg/mL (≈ 0.207 µM)
MIC (Escherichia coli [4]): 0.03 µg/mL (≈ 0.103 µM)

COLISTIN
MIC (Escherichia coli [1]): < 0.5 µg/mL
MIC (Escherichia coli [3]): < 0.5 µg/mL
MIC (Escherichia coli [10]): < 0.5 µg/mL
MIC (Escherichia coli [2]): < 0.5 µg/mL
MIC (Escherichia coli [4]): < 0.5 µg/mL

GENTAMICIN
MIC (Escherichia coli [1]): 0.25 µg/mL
MIC (Escherichia coli [3]): 0.25 µg/mL
MIC (Escherichia coli [10]): 0.25 µg/mL
MIC (Escherichia coli [4]): 8 µg/mL
